US6784155B1, “Inhibitor and stimulator of stem cell proliferation and uses thereof” (Wellstat Therapeutics Corporation, priority 1996, dated 2004)
No end group written: not given here.

Columns and labels:
CFU-MIX [1] = assay: CFU-MIX cycling assay in vitro (Ara C kill); type: cell-based, mouse
Description: A similar assay can be performed in vitro, using the cycling status of CFU-MIX instead of CFU-S. The assay is performed as described above for the CFU-S assay except that cytosine arabinoside (Ara C, 30 micrograms/ml) is used as the cycle-specific toxic agent instead of high dose tritiated thymidine (see B. I. Lord in Haemopoiesis—A Practical Approach, N. G. Testa and G. Molineux (Eds.), IRL Press 1993; Pragnell et al. in Culture of Hematopoietic Cells, R. I. Freshney, I. B. Pragnell and M. G. Freshney (Eds.), Wiley Liss 1994) and a mouse strain with high endogenous cycling rates (Balb/c) is used instead of testosterone-treated BDFI mice.
(§1) 24 hours later (Day 1), varying doses of peptide 43-55 or vehicle were injected i.v. Bone marrow was harvested on Day 2 and the […] cycling assay conducted as in Example 14. Specifically, mice were sacrificed and single cell bone marrow suspensions prepared from the femurs. The cells were washed once and the concentration adjusted to 5×10^6 cells/ml in Fischer medium. For each test condition, one milliliter of cells was added to each of two polypropylene tubes. The tubes were incubated at 37° C. for 3 hours without (“Control”) or with (“Experimental”) the appropriate concentration of test substance. At the end of the incubation, 30 μg/ml of cytosine arabinoside (“Ara C” (Sigma)) was added to half of the tubes and the same volume of Fischer's medium was added to the others. The tubes were incubated for a further 1 hour at 37° C., after which they were placed on ice and washed twice with cold Fischer medium.
(§2) The cells were readjusted to 5×10^4-10^6/ml in Fischer's medium and 0.5 ml of cell suspension added to 5 ml of Methocult M3430 methylcellulose medium (Stem Cell Technologies, Vancouver, British Columbia). The mixture was vigorously mixed with a vortex and 1 ml was dispensed into each of five 35 mm dishes. The 35 mm dishes were in turn placed in a covered 150 mm dish with one open 35 mm dish containing sterile water. CFU-MIX colonies were counted with the use of an inverted microscope after 7 days of incubation at 37° C.
Differences in colony number between the tubes treated with medium versus the tubes treated with Ara C represent the percentage of cells in cycle under that condition according to the formula:
a=Number of CFU-MIX from tube incubated with medium alone
b=Number of CFU-MIX from tube incubated with Ara C

CFU-GEMM [2] = assay: CFU-GEMM cycling assay, mobilized human peripheral blood; type: cell-based
Description: Peripheral blood was obtained from breast cancer patients undergoing peripheral stem cell mobilization with cyclophosphamide and G-CSF according to standard protocols. Red blood cells were removed with FicolU Hypaque (cells were diluted 1:1 with IMDM and 20 ml layered on top of 16 ml Ficoll and centrifuged at 800 g for 30 minutes; mononuclear cells were removed from the interphase and washed twice in IMDM). In one case mononuclear cells were stored frozen in liquid nitrogen before assay. The mononuclear cells were plated for the CFU-GEMM cycling assay as in Example 26 except that 2.5-5×10^5 cells were plated per dish.

CFU-GEMM [3] = assay: CFU-GEMM cycling assay, human umbilical cord blood cells; type: cell-based; conditions: Table 32, cord blood mononuclear cells
Description: In order to investigate the ability of purified INPROL from porcine bone marrow to affect cycling on human progenitors, umbilical cord blood cells were obtained. Either the total mononuclear cell fraction obtained after separation on Ficoll or the CD34^+ fraction obtained after fractionation on anti-CD34 affinity columns (CellPro Inc.) was used. Cells were incubated for 48 hours in vitro in the presence of interleukin 3 (IL-3) and stem cell factor (SCF) (100 ng/ml each) in order to ensure that the early stem cells were in cycle. After this preincubation, cycling assays were conducted as described in Example 14 for the mouse except that CFU-GEMM (instead of CFU-MIX) were counted on Day 18 after plating.
The human cord blood CFU-GEMM cycling assay was conducted as in Example 19. Specifically, mononuclear cells were isolated from human umbilical cord blood cells and adjusted to 24×10^4 cells/ml in IMDM tissue culture medium supplemented with 10% FBS, 100 ng/ml kit ligand and 100 ng/ml human IL-3. The cells were incubated for 48 hours at 37° C.
After incubation, cells were washed and resuspended in serun-free NDM at a concentration of 10^6 cells/ml. One ml of cells was added to each of two polypropylene tubes per condition and the cycling assay conducted as in Example 24 for mouse bone marrow. After the Ara C incubation cells were washed with cold NDM and adjusted to 10,000 to 20,000 cells per 0.5 ml IMDM and mixed with 5 ml Methocult H4433 (Stem Cell Technologies). Alternatively, Methocult H4435 methylcellulose medium (Stem Cell Technologies) was used in which case the cell concentration was adjusted to 2500-5000 cells per 0.5 ml IMDM. The cells were plated as in Example 24 and CFU-GEMM colonies scored on days 14-18.

CFU-MIX [4] = assay: Stimulation of cycling of quiescent murine stem cells, CFU-MIX cycling assay in vitro; type: cell-based, mouse; conditions: Table 42, untreated B6D2F1 bone marrow, 1 μg/ml
Description: Microgram per milliliter doses of hemoglobin chains, myoglobin and peptides were assayed for stimulation of quiescent stem cells. Bone marrow was obtained from untreated B6D2F1 tested in the CFU-MIX cycling assay as in Example 24. Stem cells isolated from untreated B6D2F1 mice are normally slowly cycling unless stimulated (e.g. by testosterone propionate (cf. Example 1) or chemotherapy such as 5FU (cf. Example 4)) to enter into cycle.

CFU-S = CFU-S proliferation assay, 3H-Thymidine suicide method (bone marrow incubated with test fractions); type: cell-based, mouse; conditions: Table 8, bone marrow from testosterone treated mice
Description: For the detection of stem cells proliferation the number of CFU-S in S-phase of the cell cycle was measured by the ^3H-Thymidine “suicide” method (Becker et al., Blood 26:296-308, 1965).
Immature hematopoietic progenitors-Colony Forming Units in spleen (CFU-S)—can be detected in vivo by forming macroscopic colonies in the spleens of lethally irradiated mice, 8-12 days after the intravenous injection of hematopoietic cells (Till & McCulloch, 1961).
For the standard CFU-S proliferation assay the method of ^3H-Thymidine “suicide” is usually applied (Becker et al., 1965). The method is based on incorporation of radiolabelled Thymidine, (^3H-Thymidine) a precursor of DNA into cells during DNA synthesis. The CFU-S which are in S-phase of the cycle at the time of testing, are killed by the high radioactivity and therefore not able to form colonies in spleen.
The inhibitor testing can not be done with the bone marrow stem cell population from unstimulated animals, as far as the inhibitor only effects cycling CFU-S, which are as low as 7-10% of the total CFU-S population in the bone marrow of normal mice.
To stimulate CFU-S proliferation, phenylhydrazine (PHZ), or sublethal irradiation were used (Lord, 1976).
The TSP induced stimulation of CFU-S proliferation within 20-24 hours after injection and the effect could be seen for at least 7 days.
The procedure used for the screening of the fractions during purification of the Inhibitor was as follows:
Mice: BDF1 or CBF1 mice strains were used throughout all testing.
Donor mice were treated with a 10 mg/100 g dose of TSP by intraperitoneal injection of 0.2 ml/mouse in order to induce 30-35% of the CFU-S into S-phase.
Twenty-four hours later the bone marrow is taken from the femurs for the cell suspension preparation. […]
Recipient spleens are harvested on day 9-12 and fixed in Tellesnitsky's solution; the colonies are scored by eye score. The percentage of cells in S-phase are calculated using the formula. […]

CFU-MIX [5] = assay: CFU-MIX cycling assay after in vivo injection into testosterone or 5FU treated mice; parameters: species or system mouse
Description: In order to test the ability of purified porcine hemoglobin chains to act in vivo, BDF1 mice were injected with testosterone propionate as described in Example 1. Twenty four hours later, mice received 500 ng of either pINPROL, porcine hemoglobin alpha chain (purified from peripheral red blood cells as in FIG. 21), porcine beta chain (purified from peripheral red blood cells as in FIG. 21) or the equivalent volume of carrier intravenously. Forty eight hours later the bone marrow from each mouse was harvested and the CFU-MIX assay conducted as described in Example 14.
To assess the stem cell inhibitory activity of peptide 43-55 in vivo, B6D2 F1 mice were pre-treated with testosterone propionate as described in Example 1 or with 5FU. Specifically, testosterone propionate (100 mg/kg body weight) was injected i.p. on Day 0 into mice. Alternatively, mice were injected on Day 0 with 5FU ([…] body weight).
as §1, §2
Differences in colony number between the tubes treated with medium versus the tubes treated with Ara C represent the percentage of cells in cycle under that condition according to the formula: […]

[6] = Table 10, testosterone-treated BDF1 mice, 500 ng intravenously (footnote: 100 ng/ml), marrow 48 hours later
[7] = Table 9, bone marrow from Balb/c mice, 100 ng/ml

## C[C@@H](NC(=O)[C@@H](N)Cc1ccc(O)cc1)C(=O)NCC(=O)N(C)[C@@H](Cc1ccccc1)C(=O)NCCO [DAMGO, (D-Ala^2,N-Me-Phe^4,Gly-ol^5)-Enkephalin, reference compound]
CFU-MIX [1]; Table 26, Balb/c bone marrow, 10^−5M
  % Kill: 15%
CFU-MIX [1]; Table 26, Balb/c bone marrow, 10^−7M
  % Kill: 0%
CFU-MIX [1]; Table 26, Balb/c bone marrow, 10^−9M
  % Kill: 38%
CFU-GEMM [2]; Table 35, Patient #2, 10^−7M
  % Kill: 15%
CFU-GEMM [2]; Table 35, Patient #2, 10^−9M
  % Kill: 0%

## CN1CC[C@]23c4c5ccc(O)c4O[C@H]2[C@@H](O)C=C[C@H]3[C@H]1C5 [Morphine, morphine, reference compound]
CFU-MIX [1]; Table 25, Balb/c bone marrow, 10^−7M
  % Kill: 10%
CFU-MIX [1]; Table 25, Balb/c bone marrow, 10^−9M
  % Kill: 15%
CFU-MIX [1]; Table 25, Balb/c bone marrow, 10^−11M
  % Kill: 32%
CFU-GEMM [2]; Table 35, Patient #2, 10^−7M
  % Kill: 24%
CFU-GEMM [2]; Table 35, Patient #2, 10^−9M
  % Kill: 0%

## DALTNAVAHVDDMPNALSA [Peptide 64-82, amino acids 64-82 of human alpha hemoglobin]
CFU-GEMM [3]; 1 ng/ml
  % Kill: 21%
CFU-GEMM [3]; 10 ng
  % Kill: 20%
CFU-GEMM [3]; 100 ng/ml
  % Kill: 39%
CFU-MIX [1]; Table 18, 100 ng/ml
  % Kill: 9%
CFU-MIX [4]
  % Kill: 25%

## Hbg: C4 Reverse-phase purified porcine hemoglobin beta chain (derived from 2X crystallized pig hemoglobin)
CFU-S; 40 ng/ml
  % Kill: 7%
CFU-S; 200 ng/ml
  % Kill: 25%

## Human hemoglobin: human hemoglobin
CFU-MIX [5]; Table 14, testosterone-treated BDF1 mice, 500 ng/mouse
  % Kill: −31%

## Porcine alpha chain: porcine hemoglobin alpha chain purified from peripheral red blood cells as in FIG. 21
CFU-MIX [5]; [6]
  % Kill: 5%
CFU-MIX [1]; [7]
  % Kill: −4%

## Porcine beta chain: porcine hemoglobin beta chain purified from peripheral red blood cells as in FIG. 21
CFU-MIX [5]; [6]
  % Kill: −5%
CFU-MIX [1]; [7]
  % Kill: −14%
